Our source for the IC50 and inhibition in vivo values is ChEMBL document CHEMBL1147584, “Antimalarial activity of phenazines from lapachol, beta-lapachone and its derivatives against Plasmodium falciparum in vitro and Plasmodium berghei in vivo” (Bioorg Med Chem Lett, 2004).

Some results are limits rather than exact numbers.

Test [1] concerns Plasmodium falciparum. Kind of test: In vitro antimalarial activity for Plasmodium falciparum HB3. Format: functional, organism-based.
Test [2] relates to Plasmodium falciparum. Kind of test: In vitro antimalarial activity for Plasmodium falciparum W2. Format: functional, organism-based.
The subject of test [3] is Plasmodium falciparum. Kind of test: In vitro antimalarial activity for Plasmodium falciparum BHz26/86. Type of test: functional, organism-based.
Test [4] concerns Plasmodium falciparum. Kind of test: In vitro antimalarial activity for Plasmodium falciparum D6. Format: functional, organism-based.
The subject of test [5] is Plasmodium berghei. Kind of test: Inhibition of Plasmodium berghei infection in mice (Mus musculus) at 100 mg/kg subcutaneous dose (expt 1). Format: functional. Conditions: sc.
Test [6] relates to Plasmodium berghei. Nature of the test: Inhibition of Plasmodium berghei infection in mice (Mus musculus) at 100 mg/kg subcutaneous dose (expt 3). Format: functional. Conditions: sc.
In test [7] the test system is Plasmodium berghei. Kind of test: Inhibition of Plasmodium berghei infection in mice (Mus musculus) at 200 mg/kg peroral dose (expt 2). The conditions noted are these: route oral. Type of test: functional.
The subject of test [8] is Plasmodium berghei. Kind of test: Inhibition of Plasmodium berghei infection in mice (Mus musculus) at 200 mg/kg subcutaneous dose (expt 2). The conditions noted are these: sc. Format: functional.
Test [9] relates to Plasmodium berghei. Nature of the test: Inhibition of Plasmodium berghei infection in mice (Mus musculus) at 100 mg/kg subcutaneous dose (experiment 2). Type of test: functional. The conditions noted are these: sc.
In test [10] the test system is Plasmodium berghei. Kind of test: Inhibition of Plasmodium berghei infection in mice (Mus musculus) at 200 mg/kg subcutaneous dose (expt 3). Format: functional. Conditions: sc.
Test [11] has as its system Plasmodium berghei. Nature of the test: Inhibition of Plasmodium berghei infection in mice (Mus musculus) at 200 mg/kg subcutaneous dose (experiment 1). Format: functional. Conditions: sc.
For test [12], the system named is Plasmodium berghei. Nature of the test: Inhibition of Plasmodium berghei infection in mice (Mus musculus) at 200 mg/kg peroral dose (expt 1). Type of test: functional. The conditions noted are these: route oral.
For test [13], the system named is Plasmodium berghei. Kind of test: Inhibition of Plasmodium berghei infection in mice (Mus musculus) at 15 mg/kg subcutaneous dose (experiment 2). Format: functional. Conditions: sc.
Test [14] concerns Plasmodium berghei. Kind of test: Inhibition of Plasmodium berghei infection in mice (Mus musculus) at 25 mg/kg peroral dose (expt 2). Format: functional. Conditions: route oral.
The subject of test [15] is Plasmodium berghei. Nature of the test: Inhibition of Plasmodium berghei in mice (Mus musculus) after 15 mg/kg subcutaneous dose (experiment 1). Format: functional. Conditions: sc.
Test [16] relates to Plasmodium berghei. Kind of test: Inhibition of Plasmodium berghei infection in mice (Mus musculus) at 15 mg/kg subcutaneous dose (experiment 3). Type of test: functional. Conditions: sc.
The subject of test [17] is Plasmodium berghei. Kind of test: Inhibition of Plasmodium berghei infection in mice (Mus musculus) at 25 mg/kg peroral dose (experiment 1). Type of test: functional. Conditions: route oral.

In the case of `CC1(C)CCc2c(c3ccccc3c3nc4ccccc4nc23)O1`, the 50% inhibitory concentration (IC50) with Plasmodium falciparum [1], with Plasmodium falciparum [2], with Plasmodium falciparum [3] and with Plasmodium falciparum [4] was more than 20 µM each time.
With `CC1(C)Oc2c(c3nc4ccccc4nc3c3ccccc23)CC1Br` (configuration not stated), the inhibition in vivo at 100 mg/kg in the test on Plasmodium berghei [5], with Plasmodium berghei [6] and in the test on Plasmodium berghei [9] was 0% each time. The IC50 (commonly the concentration at which inhibition is half-maximal) was 8.75 µM with Plasmodium falciparum [1], 3.04 µM in the test on Plasmodium falciparum [2], 1.9 µM in the test with Plasmodium falciparum [3] and 4.07 µM in the test on Plasmodium falciparum [4]. Besides, the inhibition in vivo (usually the change of the read-out against control, counted positive when it falls) at 200 mg/kg in the test with Plasmodium berghei [7] turned out to be 10%; in the test with Plasmodium berghei [8], 0%; in the test with Plasmodium berghei [10], 0%; with Plasmodium berghei [11] it was 0%; with Plasmodium berghei [12], 11%.
For the compound `C=CCC1Cc2c(c3ccccc3c3nc4ccccc4nc23)OC1(C)C` (configuration not stated), the IC50 with Plasmodium falciparum [1], in the test on Plasmodium falciparum [2], in the test with Plasmodium falciparum [3] and in the test on Plasmodium falciparum [4] was more than 20 µM each time.
`CC1(C)Oc2c(c3nc4ccccc4nc3c3ccccc23)CC1I` (configuration not stated): the IC50 worked out at 6.65 µM in the test on Plasmodium falciparum [1], 3.22 µM in the test on Plasmodium falciparum [2], 2.3 µM with Plasmodium falciparum [3] and 4.26 µM with Plasmodium falciparum [4].
On to `CC1(C)Oc2c(c3nc4ccccc4nc3c3ccccc23)CC1S(=O)(=O)O` (configuration not stated), for which the inhibition in vivo at 100 mg/kg in the test with Plasmodium berghei [5] stood at 34%; in the test on Plasmodium berghei [9], 31%. Also, the IC50 with Plasmodium falciparum [1] was 6.14 µM; in the test on Plasmodium falciparum [2], 1.67 µM; in the test with Plasmodium falciparum [3], 1.75 µM; in the test with Plasmodium falciparum [4] it was 2.43 µM. Moreover, the inhibition in vivo at 200 mg/kg in the test on Plasmodium berghei [7] was 36%; in the test with Plasmodium berghei [8], 40%; with Plasmodium berghei [10], 98%; with Plasmodium berghei [11] it was 50%; in the test with Plasmodium berghei [12], 33%.
In the case of `CC(C)=CCc1c(O)c2ccccc2c2nc3ccccc3nc12`, the IC50 with Plasmodium falciparum [1] was 9.44 µM; in the test on Plasmodium falciparum [2], 3.54 µM; with Plasmodium falciparum [3] it was 3.14 µM; in the test on Plasmodium falciparum [4], 3.72 µM.
`c1ccc2c(c1)ccc1nc3ccccc3nc12` [BENZO[A]PHENAZINE]: the half-inhibitory concentration (IC50) with Plasmodium falciparum [1], in the test with Plasmodium falciparum [2], in the test with Plasmodium falciparum [3] and in the test on Plasmodium falciparum [4] was more than 20 µM throughout.
With `CCN(CC)CCCC(C)Nc1ccnc2cc(Cl)ccc12` (configuration not stated) [CHLOROQUINE], the inhibition in vivo at 15 mg/kg with Plasmodium berghei [13], with Plasmodium berghei [15] and in the test with Plasmodium berghei [16] was 99% throughout. Besides, the results for the inhibition in vivo at 25 mg/kg with Plasmodium berghei [14] and in the test with Plasmodium berghei [17] were 98% and 99%, respectively.
On to `CC(C)=CCC1=C(O)C(=O)c2ccccc2C1=O` [LAPACHOL], for which the inhibition in vivo at 200 mg/kg with Plasmodium berghei [7] and in the test with Plasmodium berghei [12] was 0% in each case.
For the compound `CC1(C)CCC2=C(O1)c1ccccc1C(=O)C2=O` [LAPACHONE], the inhibition in vivo at 200 mg/kg in the test on Plasmodium berghei [7] turned out to be 34%; with Plasmodium berghei [12] it was 28%.
